Measurements published in US20090306083A1, “Use of Trifluoromethyl Substituted Benzamides in teh Treatment of Neurological Disorders” (Novartis AG, priority 2006, published 2009).

Assays:
[1] = tested on: astrocytes; assay: Astrocyte scratch wound assay (in vitro assay for astrogliosis); type: cell-based, C57BL/6 mice; conditions: cytokines (TGF-α, LIF, and IFN) plus 10 nM compound; serum free=1
Procedure: Assay Astrocytes are prepared from the cerebral cortex of neonatal C57BL/6 mice(P1-P2). Cells are maintained in Dulbecco's modified Eagle's medium with 10% FBS. 4-7 weeks old astrocytes are plated to confluence in 2 well chamber slides coated with poly-D-lysine for the scratch wound assay and serum starved. 48 hrs after serum starvation, the monolayer of astrocytes is scratched with sterile 200 μl tips and washed twice with PBS to get rid of cell debris. Conditioned medium (±cytokines) is added to the wounded astrocytes. The microscopic images of the scratch is captured at a magnification of 10× right after scratch and considered as time point 0.24 hrs, 48 hrs or 72 hrs after scratch, the same region of scratch is imaged and fixed with methanol containing 1 μg/ml of DAPI to monitor migration and proliferation of astrocytes.

[2] = biological target: T1, EphA4 receptor (Mus musculus, UniProt Q03137); assay: Proof of mechanism: EphA4 phosphorylation in vivo in mouse brain (EphA4 immunoprecipitation, phospho-tyrosine Western blot); set-up: species or system NMRI mice; conditions: i.v. dose 10 mg/kg; sacrificed 25 minutes or 1 hour after dosing; brain homogenate
T1 construct: The brains were removed and one half of each brain was weighed and homogenized; from tissue; host or cells: mouse brain (NMRI mice), homogenate
Procedure: Male NMRI mice were injected with relevant compounds at a dose of 10 mg/kg body weight and were sacrificed either 25 minutes or 1 hour following the dosing (0.25 h or 1 h shown in FIG. 4). The brains were removed and one half of each brain was weighed and homogenized in appropriate volume of lysis buffer for 30 seconds (10 seconds pulse and 10 seconds off—3 times). The homogenate was spun at 12,000 g for 30 minutes. Protein amounts were estimated for supernatants (using BCA) and equal amounts of protein for each condition were subjected to EphA4 immunoprecipitation followed by a phospho-tyrosine western blot. Four control animals were used and three experimental animals per time point were used for each of the compounds tested.

T1 sequence (Q03137 20-986): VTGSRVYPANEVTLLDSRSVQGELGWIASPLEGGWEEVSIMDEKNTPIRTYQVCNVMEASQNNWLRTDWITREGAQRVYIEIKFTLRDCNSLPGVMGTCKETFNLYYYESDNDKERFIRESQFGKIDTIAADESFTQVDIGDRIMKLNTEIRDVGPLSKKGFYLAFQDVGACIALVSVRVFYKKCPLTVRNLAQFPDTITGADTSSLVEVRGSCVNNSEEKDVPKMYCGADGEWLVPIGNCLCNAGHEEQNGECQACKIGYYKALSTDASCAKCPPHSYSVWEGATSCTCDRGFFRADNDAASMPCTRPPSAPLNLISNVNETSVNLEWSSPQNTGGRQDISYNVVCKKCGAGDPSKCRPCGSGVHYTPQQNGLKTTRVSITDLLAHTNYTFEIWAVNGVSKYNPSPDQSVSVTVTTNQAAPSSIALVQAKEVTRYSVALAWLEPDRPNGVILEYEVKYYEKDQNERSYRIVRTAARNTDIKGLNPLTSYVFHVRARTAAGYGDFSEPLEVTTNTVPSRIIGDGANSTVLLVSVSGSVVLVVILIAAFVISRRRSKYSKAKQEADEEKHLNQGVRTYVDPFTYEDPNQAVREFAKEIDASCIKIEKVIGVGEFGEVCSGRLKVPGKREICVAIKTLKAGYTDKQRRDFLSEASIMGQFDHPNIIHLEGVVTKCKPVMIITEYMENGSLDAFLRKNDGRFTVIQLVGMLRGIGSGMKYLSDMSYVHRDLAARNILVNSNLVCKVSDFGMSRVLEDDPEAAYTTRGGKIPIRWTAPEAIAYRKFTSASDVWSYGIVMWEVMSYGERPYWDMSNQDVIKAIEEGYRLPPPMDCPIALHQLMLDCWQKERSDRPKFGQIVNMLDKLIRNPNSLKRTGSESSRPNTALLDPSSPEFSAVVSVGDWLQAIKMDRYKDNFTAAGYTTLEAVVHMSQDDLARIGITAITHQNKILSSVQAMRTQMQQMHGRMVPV

| melting point [°C] | SMILES | astrocyte migration induced by cytokines (relative area of cell migration compared to control) [1] | EphA4 phosphorylation in vivo in mouse brain [2] |
| --- | --- | --- | --- |
| 94 to 96 | Cc1ccc(NC(=O)c2cccc(C(F)(F)F)c2)cc1-c1ccc2ncsc2c1 [Compound 5, N-(3-Benzothiazol-6-yl-4-methyl-phenyl)-3-trifluoromethyl-benzamide] |  |  |
| 102 to 104 | Cc1ccc(C(=O)Nc2cccc(C(F)(F)F)c2)cc1-c1ccc2ncsc2c1 [Compound 6, 3-Benzothiazol-6-yl-4-methyl-N-(3-trifluoromethyl-phenyl)-benzamide] |  |  |
| 200 to 202 | Cc1ccc(C(=O)Nc2cccc(C(F)(F)F)c2)cc1-c1ccc2scnc2c1 [Compound 10, 3-Benzothiazol-5-yl-4-methyl-N-(3-trifluoromethylphenyl)benzamide] |  |  |

More lines, now with the values behind:

| SMILES | melting point [°C] | astrocyte migration induced by cytokines (relative area of cell migration compared to control) [1] | EphA4 phosphorylation in vivo in mouse brain [2] |
| --- | --- | --- | --- |
| Cc1ccc(NC(=O)c2cccc(C(F)(F)F)c2)cc1-c1ccc2ccncc2c1 [Compound 1, N-(3-Isoquinolin-7-yl-4-methyl-phenyl)-3-trifluoromethyl-benzamide] | 148 to 152 |  |  |
| Cc1ccc(C(=O)Nc2cccc(C(F)(F)F)c2)cc1-c1ccc2ccncc2c1 [Compound 3, 3-Isoquinolin-7-yl-4-methyl-N-(3-trifluoromethyl-phenyl)-benzamide] |  | block astrocyte migration induced by cytokines | block EphA4 phosphorylation in vivo in mouse brain |
| Cc1ccc(NC(=O)c2cccc(C(F)(F)F)c2)cc1-c1ccc2cnncc2c1 [Compound 7, N-(4-Methyl-3-phthalazin-6-yl-phenyl)-3-trifluoromethyl-benzamide] | 205 to 206 |  |  |
| Cc1ccc(C(=O)Nc2cccc(C(F)(F)F)c2)cc1-c1ccc2cnncc2c1 [Compound 8, 4-Methyl-3-phthalazin-6-yl-N-(3-trifluoromethyl-phenyl)-benzamide] | 270 to 272 |  |  |
| Cc1ccc(NC(=O)c2cccc(C(F)(F)F)c2)cc1-c1ccc2scnc2c1 [Compound 9, N-(3-Benzothiazol-5-yl-4-methyl-phenyl)-3-trifluoromethyl-benzamide] | 90 to 93 |  |  |
